Series [1] concerns MDCK (Madin–Darby canine kidney) cells. Description: MTT toxicity evaluation, MDCK. It is filed as cell-based. Particulars: Canis lupus familiaris, MDCK, 72 h treatment, non-tumor cells, read-out: Half Maximal Inhibitory Concentration (IC50) MDCK. How it is done: (§1) The cytotoxicity of hederagenin derivatives in vitro was evaluated on three tumor cell lines (A549: human non-small-cell lung cancer; MCF-7: human mammary cancer; HepG2: human hepatocellular carcinoma) using the 3-(4,5-dimethylthiazol-2-yl)-2,5-diphenyltetrazolium bromide (MTT) assay. In addition, their toxicity evaluations were tested on H9c2 (murine heart myoblast) and MDCK (Madin–Darby canine kidney) cells. MCF-7, A549, HepG2, H9c2, and MDCK cells were obtained from the Chinese Academy of Medical Sciences and Peking Union Medical College. All of the cell lines were maintained in Dulbecco’s modified Eagle medium (DMEM) supplemented with 1% (v/v) penicillin/streptomycin and 10% (v/v) fetal bovine serum (FBS; Thermo Technologies, New York, NY, USA) under a humidified atmosphere containing 5% CO2 at 37 °C. The stock solutions of He derivatives were dissolved in dimethyl sulfoxide (DMSO; Sigma, St. Louis, MO, USA) and added at various concentrations to the cell culture. Cellular morphologies were observed using an inverted fluorescence microscope (Olympus IX71, Tokyo, Japan), a plate reader (BIORAD 550 spectrophotometer, Bio-rad Life Science Development Ltd., Beijing, China), and a Canton 2 flow cytometer (BD, New York, NY, USA). The antitumor activity of these compounds were evaluated on MCF-7, A549, HepG2, MDCK, and H9c2 cell lines using the MTT assay. Cells at a density of 3 × 10^3 cells/well were plated in a 96-multiwell plate in DMEM containing 10% FBS for 24 h at 37 °C with 5% CO2. Then, cells were treated for 72 h with the required concentrations (3.125, 6.25, 12.5, 25, or 50 μM) of the compounds and reference drugs (He and DDP) dissolved with the vehicle DMSO. After that, the culture substrate was replaced with 200 μL of DMEM containing 20 μL of MTT solution at 5 mg/mL and incubated for 4 h. The supernatant was removed and the dissolved formazans precipitated with 120 μL of DMSO. Wells without drugs were used as blanks. A plate reader was used to determine the absorbance at 490 nm. The above steps were repeated three times. The IC50 values were defined as the concentration of the compound which gave 50% growth inhibition, and they were calculated using Graph Pad Prism 5. The inhibition rate was calculated using the following formula, where OD is the optical density:% inhibition = 1 − (Sample group OD/Control group OD) × 100%. (1)

Series [2] relates to H9c2 (murine heart myoblast). The experiment in a line: MTT toxicity evaluation, H9c2. It is filed as cell-based. The settings on record: H9c2, 72 h treatment, non-tumor cells, read-out: Half Maximal Inhibitory Concentration (IC50) H9c2. How it is done: as §1
In series [3] the test system is MCF-7 (human mammary cancer). Description: MTT cytotoxicity assay, MCF-7. It is filed as cell-based. Particulars: Homo sapiens, MCF7, 72 h treatment, read-out: Half Maximal Inhibitory Concentration (IC50) MCF-7. Here is the method:
as §1
On the technique in general: Formazan colour is commonly taken as a measure of viable cells.

In series [4] the test system is HepG2 (human hepatocellular carcinoma). The experiment in a line: MTT cytotoxicity assay, HepG2. In kind it is cell-based. The settings on record: for IC50: Homo sapiens, HepG2, MTT, 72 h treatment, read-out: Half Maximal Inhibitory Concentration (IC50) HepG2. How it is done:
as §1

In series [5] the test system is A549 (human non-small-cell lung cancer). Description: MTT cytotoxicity assay, A549. Particulars: Homo sapiens, A549, 72 h treatment, read-out: Half Maximal Inhibitory Concentration (IC50) A549. In kind it is cell-based. Here is the method:
as §1

One may read the melting point as the temperature of the solid-liquid transition.

For the compound `Cc1ncc(COC(=O)[C@]23CCC(C)(C)CC2C2=CCC4[C@@]5(C)CC[C@H](O)[C@@](C)(CO)C5CC[C@@]4(C)[C@]2(C)CC3)nc1C` (stereo partly drawn) [Compound 5, (5,6-Dimethylpyrazin-2-yl)methyl(4aS,6aS,6bR,9R,10S,12aR)-10-hydroxy-9-(hydroxymethyl)-2,2,6a,6b,9,12a-hexamethyl-1,3,4,5,6,6a,6b,7,8,8a,9,10,11,12,12a,12b,13,14b-octadecahydropicene-4a(2H)-carboxylate], the melting point was more than 200 °C. Moreover, the IC50 in series [1] was 23.5 ± 0.67 µM. The IC50 in series [2] was determined as 28.5 ± 0.29 µM. Also, in series [3], the IC50 is more than 30 µM. Moreover, in series [4], the IC50 came to 24.94 ± 0.06 µM. Besides, the IC50 in series [5] came to 24.4 ± 0.37 µM.
`Cc1nc(C)c(COC(=O)[C@]23CCC(C)(C)CC2C2=CCC4[C@@]5(C)CC[C@H](O)[C@@](C)(CO)C5CC[C@@]4(C)[C@]2(C)CC3)nc1C` (stereo partly drawn) [Compound 6, (3,5,6-Trimethylpyrazin-2-yl)methyl(4aS,6aS,6bR,9R,10S,12aR)-10-hydroxy-9-(hydroxymethyl)-2,2,6a,6b,9,12a-hexamethyl-1,3,4,5,6,6a,6b,7,8,8a,9,10,11,12,12a,12b,13,14b-octadecahydropicene-4a(2H)-carboxylate] came in with a melting point of 127.8 °C. In series [1], the IC50 was found to be 24.1 ± 0.76 µM. In addition, the IC50 in series [2] is more than 30 µM. Further, in series [3], the IC50 was more than 30 µM. In addition, the IC50 in series [4] was more than 30 µM. In series [5], the IC50 came out at 25.5 ± 0.26 µM.
As to `CC1(C)CC[C@]2(C(=O)OCCO)CC[C@]3(C)C(=CCC4[C@@]5(C)CC[C@H](O)[C@@](C)(CO)C5CC[C@]43C)C2C1` (stereo partly drawn) [Compound 7, 2-Hydroxyethyl (4aS,6aS,6bR,9R,10S,12aR)-10-hydroxy-9-(hydroxymethyl)-2,2,6a,6b,9,12a-hexamethyl-1,3,4,5,6,6a,6b,7,8,8a,9,10,11,12,12a,12b,13,14b-octadecahydropicene-4a(2H)-carboxylate], the melting point was 246.6 °C. Also, in series [1], the IC50 is more than 30 µM. Moreover, the IC50 in series [2] was more than 30 µM. The IC50 in series [3] is more than 30 µM. Besides, the IC50 in series [4] is more than 30 µM. For the same compound, the IC50 in series [5] was more than 30 µM.
Turning to `CC1(C)CC[C@]2(C(=O)OCCOC(=O)c3cnccn3)CC[C@]3(C)C(=CCC4[C@@]5(C)CC[C@H](O)[C@@](C)(CO)C5CC[C@]43C)C2C1` (stereo partly drawn) [Compound 8, 2-(((4aS,6aS,6bR,9R,10S,12aR)-10-Hydroxy-9-(hydroxymethyl)-2,2,6a,6b,9,12a-hexamethyl-1,2,3,4,4a,5,6,6a,6b,7,8,8a,9,10,11,12,12a,12b,13,14b-icosahydropicene-4a-carbonyl)oxy)ethylpyrazine-2-carboxylate], the melting point amounted to 154.7 °C. The IC50 in series [1] was determined as 20.1 ± 0.3 µM. Besides, the IC50 in series [2] was 21.7 ± 0.86 µM. Moreover, the IC50 in series [3] came to 25.35 ± 0.09 µM. In addition, the IC50 in series [4] was 17.4 ± 0.75 µM. Also, in series [5], the IC50 was found to be 23.9 ± 0.31 µM.
In turn, `Cc1cnc(C(=O)OCCOC(=O)[C@]23CCC(C)(C)CC2C2=CCC4[C@@]5(C)CC[C@H](O)[C@@](C)(CO)C5CC[C@@]4(C)[C@]2(C)CC3)cn1` (stereo partly drawn) [Compound 10, 2-(((4aS,6aS,6bR,9R,10S,12aR)-10-Hydroxy-9-(hydroxymethyl)-2,2,6a,6b,9,12a-hexamethyl-1,2,3,4,4a,5,6,6a,6b,7,8,8a,9,10,11,12,12a,12b,13,14b-icosahydropicene-4a-carbonyl)oxy)ethyl-5-methylpyrazine-2-carboxylate] returned a melting point of 192.6 °C. For the same compound, in series [1], the IC50 stood at 25.4 ± 0.28 µM. Also, the IC50 in series [2] was 19.6 ± 3.29 µM. The IC50 in series [3] turned out to be 27.2 ± 2.09 µM. Besides, the IC50 in series [4] came to 28.17 ± 0.21 µM. Further, the IC50 in series [5] came out at 20.9 ± 0.68 µM.
`Cc1nccnc1C(=O)OCCOC(=O)[C@]12CCC(C)(C)CC1C1=CCC3[C@@]4(C)CC[C@H](O)[C@@](C)(CO)C4CC[C@@]3(C)[C@]1(C)CC2` (stereo partly drawn) [Compound 11, 2-(((4aS,6aS,6bR,9R,10S,12aR)-10-Hydroxy-9-(hydroxymethyl)-2,2,6a,6b,9,12a-hexamethyl-1,2,3,4,4a,5,6,6a,6b,7,8,8a,9,10,11,12,12a,12b,13,14b-icosahydropicene-4a-carbonyl)oxy)ethyl-3-methylpyrazine-2-carboxylate] returned a melting point of 146.8 °C. Besides, the IC50 in series [1] turned out to be 18.64 ± 0.18 µM. Besides, the IC50 in series [2] was determined as 14.7 ± 0.16 µM. Also, in series [3], the IC50 stood at 27.3 ± 0.57 µM. The IC50 in series [4] turned out to be 14.84 ± 0.03 µM. Further, the IC50 in series [5] worked out at 14.12 ± 0.01 µM.
Compound `Cc1ncc(C(=O)OCCOC(=O)[C@]23CCC(C)(C)CC2C2=CCC4[C@@]5(C)CC[C@H](O)[C@@](C)(CO)C5CC[C@@]4(C)[C@]2(C)CC3)nc1C` (stereo partly drawn) [Compound 12, 2-(((4aS,6aS,6bR,9R,10S,12aR)-10-Hydroxy-9-(hydroxymethyl)-2,2,6a,6b,9,12a-hexamethyl-1,2,3,4,4a,5,6,6a,6b,7,8,8a,9,10,11,12,12a,12b,13,14b-icosahydropicene-4a-carbonyl)oxy)ethyl-5,6-dimethylpyrazine-2-carboxylate] had a melting point of 146.2 °C. Also, in series [1], the IC50 was determined as 18.6 ± 0.71 µM. Besides, the IC50 in series [2] is 13.2 ± 0.2 µM. Further, the IC50 in series [3] stood at 17.3 ± 0.58 µM. The IC50 in series [4] turned out to be 14.42 ± 0.03 µM. Besides, the IC50 in series [5] came to 10.1 ± 2.47 µM.
In turn, `Cc1nc(C)c(C(=O)OCCOC(=O)[C@]23CCC(C)(C)CC2C2=CCC4[C@@]5(C)CC[C@H](O)[C@@](C)(CO)C5CC[C@@]4(C)[C@]2(C)CC3)nc1C` (stereo partly drawn) [Compound 13, 2-(((4aS,6aS,6bR,9R,10S,12aR)-10-Hydroxy-9-(hydroxymethyl)-2,2,6a,6b,9,12a-hexamethyl-1,2,3,4,4a,5,6,6a,6b,7,8,8a,9,10,11,12,12a,12b,13,14b-icosahydropicene-4a-carbonyl)oxy)ethyl-3,5,6-trimethylpyrazine-2-carboxylate] showed a melting point of 150.6 °C. The IC50 in series [1] was 23.22 ± 0.01 µM. Further, the IC50 in series [2] was 10.5 ± 0.61 µM. In addition, the IC50 in series [3] amounted to 18.03 ± 0.18 µM. Also, in series [4], the IC50 came to 13.2 ± 0.29 µM. For the same compound, the IC50 in series [5] is 8.15 ± 0.17 µM.
`CC1(C)CC[C@]2(C(=O)OCCCCOC(=O)c3cnccn3)CC[C@]3(C)C(=CCC4[C@@]5(C)CC[C@H](O)[C@@](C)(CO)C5CC[C@]43C)C2C1` (stereo partly drawn) [Compound 14, 4-(((4aS,6aS,6bR,9R,10S,12aR)-10-Gydroxy-9-(hydroxymethyl)-2,2,6a,6b,9,12a-hexamethyl-1,2,3,4,4a,5,6,6a,6b,7,8,8a,9,10,11,12,12a,12b,13,14b-icosahydropicene-4a-carbonyl)oxy)butyl-pyrazine-2-carboxylate] had a melting point of 127 °C. Further, the IC50 in series [1] stood at 18.1 ± 0.12 µM. For the same compound, the IC50 in series [2] stood at 15.9 ± 0.22 µM. The IC50 in series [3] came to 31.23 ± 0.15 µM. Besides, the IC50 in series [4] was found to be 7.05 ± 0.17 µM. Also, the “selective inhibition (SI = IC50 MCF-7/IC50 HepG2)” value in series [4] (ratio of IC50 MCF-7 to IC50 HepG2) amounted to 4.43. Also, the IC50 in series [5] amounted to 17.6 ± 2.33 µM.
As to `Cc1cncc(C(=O)OCCCCOC(=O)[C@]23CCC(C)(C)CC2C2=CCC4[C@@]5(C)CC[C@H](O)[C@@](C)(CO)C5CC[C@@]4(C)[C@]2(C)CC3)n1` (stereo partly drawn) [Compound 15, 4-(((4aS,6aS,6bR,9R,10S,12aR)-10-Hydroxy-9-(hydroxymethyl)-2,2,6a,6b,9,12a-hexamethyl-1,2,3,4,4a,5,6,6a,6b,7,8,8a,9,10,11,12,12a,12b,13,14b-icosahydropicene-4a-carbonyl)oxy)butyl-6-methylpyrazine-2-carboxylate], the melting point worked out at 128 °C. Moreover, the IC50 in series [1] amounted to 17.1 ± 1.01 µM. Further, in series [2], the IC50 came out at 17.6 ± 1.85 µM. For the same compound, the IC50 in series [3] came to 19.8 ± 1.27 µM. Further, the IC50 in series [4] was found to be 6.71 ± 0.2 µM. Further, in series [5], the IC50 is 17.98 ± 0.04 µM.

The record behind these values is publication PMC6213900, “Design, Synthesis, and Cytotoxic Analysis of Novel Hederagenin–Pyrazine Derivatives Based on Partial Least Squares Discriminant Analysis” (International Journal of Molecular Sciences, 2018).
